Four molecules from patent US20160025730A1, “METHODS OF SELECTING COMBINATION THERAPY FOR COLORECTAL CANCER PATIENTS” (NESTEC S.A., priority 2013, published 2016) can be followed below.

The subject of one assay is ERK. As to the kind of experiment: CEER phospho ERK level. In kind it is cell-based, human. Conditions: Lim1215 cells, 24 h, assay range 1.02-100.
In the next assay the test system is MEK. As to the kind of experiment: CEER phospho MEK level. The settings on record: Lim1215 cells, 24 h, assay range 1.02-100. Format: cell-based, human. The text has this: (§1) These were complemented by ErbB heterodimerization assays using CEER.
The next assay relates to RSK. As to the kind of experiment: CEER phospho RSK level. Format: cell-based, human. The settings on record: Lim1215 cells, 24 h, assay range 2.56-100.
Description: as §1

The next assay has as its system AKT. As to the kind of experiment: CEER phospho AKT level. The settings on record: Lim1215 cells, 24 h, assay range 1.02-40.
A further assay relates to HER2:HER3. As to the kind of experiment: CEER ErbB heterodimerization assay, HER2:HER3 dimer. In kind it is cell-based, human. The settings on record: Lim1215 cells, 24 h, assay range 50-1500.
Description: (§2) In certain aspects, the present invention provides an assay for detecting and/or quantitating homo- or heterodimerization of receptor tyrosine kinases including, but not limited to, HER1:HER2 dimers, HER1:HER3 dimers, HER2:HER3 dimers, HER2:HER2 dimers, HER2:HER4 dimers, p95HER2:HER3 dimers, p95HER2:HER2 dimers, and the like. A homodimer is formed by two identical molecules such as HER2:HER2 in a process called homodimerization, whereas a heterodimer is formed by two different macromolecules such as HER1:HER3 or HER2:HER3 in a process called heterodimerization. In this aspect, the assay comprises three antibodies: (1) a capture antibody specific for one member of the dimer pair; (2) a first detection antibody specific for a first member of the dimer pair, wherein the first detection antibody is specific for a different domain than the capture antibody; and a (3) a second detection antibody specific for a second member of the dimer pair.
(§3) A first detection antibody is then used to bind to a different portion (e.g., epitope) on HER2. […] The first detection antibody comprises one or a plurality of first activation state-independent antibodies specific for one member of the dimer, whereas a second detection antibody or a plurality of second detection antibodies is specific for the other member of the dimer. […] Thereafter, the plurality of detectable captured analytes are incubated with a second member of the signal amplification pair, e.g., tyramide or tyramide biotin to generate an amplified signal, which is then detected.
as §1

Another assay relates to HER3:PI3K. As to the kind of experiment: CEER HER3:PI3K complex assay. In kind it is cell-based, human. The settings on record: Lim1215 cells; 24 h; series 4 (FIG. 4; DMSO 24.7); assay range 3.9-500.
Description: The assays described herein can be used to detect and quantitate the amount of PI3K complex and the amount of activation and/or phosphorylation of a PI3K complex. The PI3K complex comprises: (i) a dimerized receptor tyrosine kinase pair; and (ii) a PI3K p85 subunit and a PI3K p110 (e.g., α or β) subunit. In particular embodiments, the assay comprises three antibodies: (1) a capture antibody specific for either the PI3K p85 or the PI3K p110 subunit; (2) a first detection antibody specific for a first member of the dimerized receptor tyrosine kinase pair or a PI3K subunit, wherein the first detection antibody is specific for a different domain than the capture antibody and wherein the PI3K subunit may be activated; and (3) a second detection antibody specific for a second member of the dimer pair or a PI3K subunit.
as §1

The test system of assay [1] is HER2. As to the kind of experiment: CEER total HER2 expression level. In kind it is cell-based, human. The settings on record: Lim1215 cells, 24 h, assay range 390-25000.
Description: as §1

Assay [2] concerns HER3. As to the kind of experiment: CEER total HER3 expression level. In kind it is cell-based, human. Conditions: Lim1215 cells, 24 h, assay range 390-25000.
Description: as §1

The target of assay [3] is T1, HER2 (Homo sapiens, UniProt P04626).
T1 construct: endogenous in cells; host or cells: Lim1215 human colon cancer cells
As to the kind of experiment: CEER phospho HER2 activation level. Format: cell-based. The settings on record: Lim1215 cells, 24 h, assay range 20.48-2000.
Description: as §1

Assay [4] deals with HER3. As to the kind of experiment: CEER phospho HER3 activation level. The settings on record: Lim1215 cells, 24 h, assay range 12.8-1500. Format: cell-based, human.
Description: as §1

Another assay has as its system HER1:HER2. As to the kind of experiment: CEER ErbB heterodimerization assay, HER1:HER2 dimer. In kind it is cell-based, human. Conditions: Lim1215 cells, 24 h, assay range 7.8-1000.
Description: as §2, §3, §1

A further assay concerns HER1:HER3. As to the kind of experiment: CEER ErbB heterodimerization assay, HER1:HER3 dimer. Conditions: Lim1215 cells, 24 h, assay range 200-20000. Format: cell-based, human.
Description: as §2, §3, §1

For assay [5], the system named is HER1. As to the kind of experiment: CEER total HER1 expression level. Format: cell-based, human. Conditions: Lim1215 cells, 24 h, assay range 7.8-500.
Description: as §1

Assay [6] deals with T2, HER1 (Homo sapiens, UniProt P00533).
T2 construct: endogenous in cells; host or cells: Lim1215 human colon cancer cells
As to the kind of experiment: CEER phospho HER1 activation level. Format: cell-based. The settings on record: Lim1215 cells; 24 h; series 4 (FIG. 4; DMSO 4.7); assay range 0.14-10.67.
Description: as §1

The mark [7] stands for this setting: series 3 (FIG. 3; control 16.3).
The mark [8] stands for this setting: series 3 (FIG. 3; control […] >ULOQ).
The mark [9] stands for this setting: series 3 (FIG. 3; control 11.4).
Setting [10] is: series 3 (FIG. 3; control 211.8).
Where [11] appears, read: series 3 (FIG. 3; control 3025).
Where [12] appears, read: series 3 (FIG. 3; control 4282).

T1 sequence (P04626 23-1255): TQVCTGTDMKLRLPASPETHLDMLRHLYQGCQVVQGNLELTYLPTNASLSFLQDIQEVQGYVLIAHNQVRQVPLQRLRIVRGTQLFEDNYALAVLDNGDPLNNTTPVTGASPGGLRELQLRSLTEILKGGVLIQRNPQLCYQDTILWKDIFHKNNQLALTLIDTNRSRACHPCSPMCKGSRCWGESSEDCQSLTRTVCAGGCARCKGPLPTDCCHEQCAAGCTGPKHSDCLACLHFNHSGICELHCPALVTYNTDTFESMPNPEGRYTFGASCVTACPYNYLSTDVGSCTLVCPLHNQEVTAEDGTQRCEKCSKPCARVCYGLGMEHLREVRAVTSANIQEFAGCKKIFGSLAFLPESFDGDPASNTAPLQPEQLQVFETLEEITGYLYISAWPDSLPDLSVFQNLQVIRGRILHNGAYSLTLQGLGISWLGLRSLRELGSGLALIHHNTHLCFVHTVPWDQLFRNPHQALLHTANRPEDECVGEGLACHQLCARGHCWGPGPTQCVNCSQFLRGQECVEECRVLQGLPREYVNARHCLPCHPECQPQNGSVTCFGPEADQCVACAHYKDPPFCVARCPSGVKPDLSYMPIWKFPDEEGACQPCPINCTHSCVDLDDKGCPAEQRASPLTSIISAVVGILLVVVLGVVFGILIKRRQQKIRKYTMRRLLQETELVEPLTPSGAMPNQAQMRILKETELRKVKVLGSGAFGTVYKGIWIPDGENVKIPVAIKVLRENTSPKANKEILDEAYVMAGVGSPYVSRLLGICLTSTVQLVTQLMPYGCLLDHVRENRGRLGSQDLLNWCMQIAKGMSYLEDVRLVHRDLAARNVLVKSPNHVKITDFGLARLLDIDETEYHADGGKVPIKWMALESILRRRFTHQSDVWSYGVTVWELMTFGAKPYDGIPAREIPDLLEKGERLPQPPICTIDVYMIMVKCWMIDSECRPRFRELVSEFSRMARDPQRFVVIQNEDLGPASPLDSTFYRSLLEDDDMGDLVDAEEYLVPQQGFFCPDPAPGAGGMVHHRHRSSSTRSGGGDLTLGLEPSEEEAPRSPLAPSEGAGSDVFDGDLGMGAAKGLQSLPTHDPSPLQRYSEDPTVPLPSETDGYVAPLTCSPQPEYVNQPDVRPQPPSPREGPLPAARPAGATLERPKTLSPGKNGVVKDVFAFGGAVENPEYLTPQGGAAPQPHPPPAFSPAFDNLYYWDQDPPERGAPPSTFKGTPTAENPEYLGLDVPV
T2 sequence (P00533 25-1210): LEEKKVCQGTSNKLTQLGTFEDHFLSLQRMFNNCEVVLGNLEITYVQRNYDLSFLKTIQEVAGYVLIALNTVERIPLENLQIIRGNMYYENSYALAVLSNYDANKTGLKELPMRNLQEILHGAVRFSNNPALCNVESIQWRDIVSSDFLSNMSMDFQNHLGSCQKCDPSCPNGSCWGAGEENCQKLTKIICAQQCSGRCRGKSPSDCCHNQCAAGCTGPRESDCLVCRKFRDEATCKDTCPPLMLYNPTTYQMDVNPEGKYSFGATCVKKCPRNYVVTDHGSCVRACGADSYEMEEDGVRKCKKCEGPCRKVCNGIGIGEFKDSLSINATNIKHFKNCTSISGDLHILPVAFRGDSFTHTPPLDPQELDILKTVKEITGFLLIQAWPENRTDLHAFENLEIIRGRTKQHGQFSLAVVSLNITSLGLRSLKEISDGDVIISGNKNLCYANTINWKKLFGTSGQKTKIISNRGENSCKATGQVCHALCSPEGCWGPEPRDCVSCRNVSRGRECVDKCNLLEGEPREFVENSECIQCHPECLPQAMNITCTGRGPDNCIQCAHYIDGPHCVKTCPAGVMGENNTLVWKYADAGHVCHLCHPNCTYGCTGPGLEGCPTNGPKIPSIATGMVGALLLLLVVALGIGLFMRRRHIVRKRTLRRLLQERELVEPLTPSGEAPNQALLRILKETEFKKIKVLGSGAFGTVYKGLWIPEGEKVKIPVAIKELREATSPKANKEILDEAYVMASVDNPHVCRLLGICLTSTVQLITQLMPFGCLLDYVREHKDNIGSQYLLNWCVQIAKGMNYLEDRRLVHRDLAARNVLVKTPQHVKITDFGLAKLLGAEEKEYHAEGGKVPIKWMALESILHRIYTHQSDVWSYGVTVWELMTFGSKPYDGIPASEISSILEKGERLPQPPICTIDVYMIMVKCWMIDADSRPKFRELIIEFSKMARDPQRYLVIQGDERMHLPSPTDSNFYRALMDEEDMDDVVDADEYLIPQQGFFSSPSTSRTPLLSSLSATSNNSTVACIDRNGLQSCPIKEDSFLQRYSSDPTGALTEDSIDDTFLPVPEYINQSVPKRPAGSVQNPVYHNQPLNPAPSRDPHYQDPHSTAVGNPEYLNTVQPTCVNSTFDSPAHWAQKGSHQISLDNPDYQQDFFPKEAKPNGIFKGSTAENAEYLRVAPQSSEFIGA

As to `COc1cc2ncnc(Nc3ccc(F)c(Cl)c3)c2cc1OCCCN1CCOCC1` [Gefitinib, gefitinib], the “Phos ERK (10 ug)” value in the assay with ERK (series 3 (FIG. 3; control 5.3)) came out at 1.1 pg/µg; in the assay on ERK (series 4 (FIG. 4; DMSO 3.3)), 0.68 pg/µg. Also, the “Phos MEK (10 ug)” value in the assay with MEK (setting [7]) turned out to be 2.9 pg/µg; in the assay with MEK (series 4 (FIG. 4; DMSO 9.8)) it was 1.7 pg/µg. The “Phos RSK (10 ug)” value in the assay with RSK (setting [8]) was found to be 6.3 pg/µg; with RSK (series 4 (FIG. 4; DMSO 91.4)) it was 4.7 pg/µg. Moreover, in the assay on AKT (setting [9]), the “Phos AKT (10 ug)” value was 0.64 pg/µg.

As for `CS(=O)(=O)CCNCc1ccc(-c2ccc3ncnc(Nc4ccc(OCc5cccc(F)c5)c(Cl)c4)c3c2)o1` [Lapatinib, lapatinib], the “ErbB Dimer Formation HER2:HER3 (2 ug)” value in the assay on HER2:HER3 (setting [10]) is given as 493.6; in the assay with HER2:HER3 (series 4 (FIG. 4; DMSO 172.5)), 301.3. Besides, in the assay on HER3:PI3K, the “HER3:PI3K (4 ug)” value is on record as 23.0. Also, the “Total HER2 (0.2 ug)” value is on record as 5391 in the assay with HER2 [1] (setting [11]) and 4135 in the assay with HER2 [1] (series 4 (FIG. 4; DMSO 2581)). Besides, the “Total HER3 (0.2 ug)” value in the assay with HER3 [2] (setting [12]) was found to be 5711; with HER3 [2] (series 4 (FIG. 4; DMSO 3388)), 6907. The “Phos HER2 (2.5 ug)” value on HER2 [3] (series 3 (FIG. 3; control 2068 >ULOQ)) was 49; at HER2 [3] (series 4 (FIG. 4; DMSO 447)), 15. Also, in the assay with HER3 [4] (series 3 (FIG. 3; control 573)), the “Phos HER3 (10 ug)” value is on record as 677. In addition, the “Phos ERK (10 ug)” value with ERK (series 3 (FIG. 3; control 5.3)) was determined as 0.84 pg/µg; in the assay on ERK (series 4 (FIG. 4; DMSO 3.3)) it was 0.56 pg/µg. Also, the “Phos MEK (10 ug)” value in the assay with MEK (setting [7]) was 3.1 pg/µg; with MEK (series 4 (FIG. 4; DMSO 9.8)), 1.4 pg/µg. The “Phos RSK (10 ug)” value was 3.9 pg/µg with RSK (setting [8]) and 3.3 pg/µg in the assay with RSK (series 4 (FIG. 4; DMSO 91.4)). For the same molecule, the “Phos AKT (10 ug)” value in the assay with AKT (setting [9]) stood at 0.66 pg/µg.

As to `O=C(NC[C@H](O)CO)c1ccncc1Nc1ccc(I)cc1F` [iMEK AS703026, AS703026], the “ErbB Dimer Formation HER2:HER3 (2 ug)” value with HER2:HER3 (series 4 (FIG. 4; DMSO 172.5)) worked out at 313.2. In addition, in the assay with HER1:HER2 (series 4 (FIG. 4; DMSO 42.7)), the “ErbB Dimer Formation HER1:HER2 (2 ug)” value is given as 52.1. In the assay with HER1:HER3 (series 4 (FIG. 4; DMSO 186)), the “ErbB Dimer Formation HER1:HER3 (0.5 ug)” value worked out at 226. Besides, the “HER3:PI3K (4 ug)” value with HER3:PI3K is given as 27.8. Moreover, the “Total HER1 (1 ug)” value with HER1 [5] (series 4 (FIG. 4; DMSO 96.8)) was 69.9. In addition, in the assay with HER2 [1] (series 4 (FIG. 4; DMSO 2581)), the “Total HER2 (0.2 ug)” value stood at 2546. Also, the “Total HER3 (0.2 ug)” value in the assay on HER3 [2] (series 4 (FIG. 4; DMSO 3388)) came out at 3317. Moreover, the “Phos HER1 (10 ug)” value at HER1 [6] was 2.9. Besides, the “Phos HER2 (2.5 ug)” value at HER2 [3] (series 4 (FIG. 4; DMSO 447)) amounted to 480. Moreover, the “Phos HER3 (10 ug)” value with HER3 [4] (series 4 (FIG. 4; DMSO 204)) is reported as 300. In the assay on ERK (series 4 (FIG. 4; DMSO 3.3)), the “Phos ERK (10 ug)” value amounted to 1.1 pg/µg. In addition, in the assay on MEK (series 4 (FIG. 4; DMSO 9.8)), the “Phos MEK (10 ug)” value was found to be 74.9 pg/µg. The “Phos RSK (10 ug)” value in the assay with RSK (series 4 (FIG. 4; DMSO 91.4)) was 35.9 pg/µg.

For the molecule pertuzumab, the figures for the “ErbB Dimer Formation HER2:HER3 (2 ug)” value in the assay on HER2:HER3 (series 2 (FIG. 2; Control 250.9)) and with HER2:HER3 (setting [10]) were 704.6 and 472.1, respectively. Also, the entries for the “ErbB Dimer Formation HER1:HER2 (2 ug)” value in the assay on HER1:HER2 (series 2 (FIG. 2; Control […])) and in the assay on HER1:HER2 (series 3 (FIG. 3; control 46.0)) were 161.7 and 64.8, respectively. For the same molecule, the entries for the “ErbB Dimer Formation HER1:HER3 (0.5 ug)” value in the assay on HER1:HER3 (series 2 (FIG. 2; Control 387)) and with HER1:HER3 (series 3 (FIG. 3; control 398)) were 458 and 412, respectively. Moreover, the “Total HER1 (1 ug)” value with HER1 [5] (series 2 (FIG. 2; Control 171.4)) was determined as 198.5; in the assay on HER1 [5] (series 3 (FIG. 3; control 137.2)), 115.1. Also, the “Total HER2 (0.2 ug)” value with HER2 [1] (series 2 (FIG. 2; Control 4212)) came out at 7200; in the assay on HER2 [1] (setting [11]), 5568. In addition, the “Total HER3 (0.2 ug)” value in the assay on HER3 [2] (series 2 (FIG. 2; Control 7757)) was found to be 10665; in the assay on HER3 [2] (setting [12]) it was 5501. Besides, the “Phos HER3 (10 ug)” value in the assay with HER3 [4] (series 2 (FIG. 2; Control 236)) amounted to 313; in the assay on HER3 [4] (series 3 (FIG. 3; control 573)), 826. The “Phos ERK (10 ug)” value in the assay on ERK (series 2 (FIG. 2; Control 5.7)) amounted to 5.6 pg/µg; in the assay on ERK (series 3 (FIG. 3; control 5.3)) it was 2.2 pg/µg. Moreover, the figures for the “Phos MEK (10 ug)” value in the assay on MEK (series 2 (FIG. 2; Control 38.0)) and in the assay with MEK (setting [7]) were 17.1 pg/µg and 8.6 pg/µg, respectively. The results for the “Phos RSK (10 ug)” value in the assay on RSK (series 2 (FIG. 2; Control 289 >ULOQ)) and in the assay with RSK (setting [8]) were 199 pg/µg and 92.1 pg/µg, respectively. Moreover, the “Phos AKT (10 ug)” value with AKT (series 2 (FIG. 2; Control 9.6)) stood at 6.1 pg/µg; in the assay with AKT (setting [9]), 1.2 pg/µg.
